Test results as given in US8093028B2, “Engineered glycosyltransferases with expanded substrate specificity” (Wisconsin Alumni Research Foundation, priority 2007, dated 2012).

Columns and labels:
Format in all cases: biochemical
OleD P67T/S132F/A242V [1] = target: T1, OleD P67T/S132F/A242V (Streptomyces antibioticus, UniProt Q53685, A242V/P67T/S132F)
T1 construct: made in house; host or cells: E. coli (site-directed mutant of pET28/OleD)
Method: Kinetic parameters kcat and Km were determined with both 4-Me-umb FIG. 1: 4 and UPDG as variable substrates using assay conditions as described above. […] Each experiment was performed in triplicate. Initial velocities were fitted to the Michaelis-Menten equation using Sigma Plot.
Enzyme assays were carried out in a total volume of 500 μl 50 mM Tris-HCl (pH 8.0) containing 5 mM MgCl2, and 50 μg pure enzyme. Kinetic parameters kcat and Km were determined with both 4-Me-umb FIG. 1: 4 and UPDG (FIG. 3: 2) as variable substrates. […] Each experiment was performed in triplicate. Initial velocities were fitted to the Michaelis-Menten equation using Sigma Plot.

WT OleD [2] = target: T2, WT OleD (Streptomyces antibioticus, UniProt Q53685, P55A/R82V/R83E/T84P); test: Fluorescence-based glycosyltransferase assay in E. coli crude cell extracts
T2 construct: made in house; host or cells: E. coli BL21(DE3)pLysS, plasmid pET28/OleD
Method: Individual colonies were used to inoculate wells of a 96-deep well microtitre plate wherein each well contained 1 ml of LB medium supplemented with 50 μg/ml kanamycin. Culture plates were tightly sealed with AeraSeal™ breathable film (Research Products International Corp.). After cell growth at 37° C. for 18 h with shaking at 350 rpm, 100 μl of each culture was transferred to a fresh deep-well plate containing 1 ml of LB medium supplemented with 50 μg/ml kanamycin. The original plate was sealed and stored at 4° C., or a glycerol copy made by mixing 100 μl of each culture with 100 µl 50% (v/v) glycerol and storing at −80° C. The freshly inoculated plate was incubated at 37° C. for 2-3 h with shaking at 350 rpm. […]
For the assay, cleared supernatant was mixed with an equal volume (501) of 50 mM Tris-HCl (pH 8.0) containing 10 mM MgCl2, 0.2 mM 4-Me-umb (FIG. 1: 4), and 1.0 mM UPDG (FIG. 3: 2) using a Biomek FX Liquid Handling Workstation (Beckman Coulter, Fullerton, Calif.). Upon mixing, the fluorescence at excitation 350 nm and emission 460 nm was measured using a FLUOstar Optima plate reader (BMG Labtechnologies, Durham, N.C.) and the reactions incubated for 4 h at 30° C., at which time the fluorescence measurement was repeated. Activity of the clones was expressed as the difference in fluorescence intensity between 0 h and 3 h.

WT OleD [3] = target: T2, WT OleD; conditions: named substrate varied, other substrate fixed at 5 mM
Method: Determination of kinetic parameters. Enzyme assays were carried out in a total volume of 100 μl 50 mM Tris-HCl (pH 8.0) containing 5 mM MgCl2, and typically 10-50 μg pure enzyme. Kinetic parameters kcat and Km were determined with both (FIG. 9: 1) and (FIG. 12: 5) as variable substrates. […] Each experiment was performed in triplicate. Aliquots ([…]) were removed between 0 and 30 min, at which time product formation was still linear with respect to time, and quenched with 100 μl of ice-cold MeOH, and centrifuged at 10,000 g for 10 min. Supernatants were analyzed by analytical reverse-phase HPLC as described above. The substrate (FIG. 9: 1) and the glucoside product (FIG. 9: 7) HPLC peak areas were integrated, and the product concentration calculated as a percent of the total peak area. Initial velocities were fitted to the Michaelis-Menten equation using Sigma Plot.

OleD P67T/I112K/A242V = OleD P67T/I112K/A242V (Streptomyces antibioticus, UniProt Q53685, A242V/I112K/P67T); test: Specific activity with novobiocic acid as acceptor and UDP-Glc; conditions: UDP-Glc donor
Method: (§1) Determination of specific activity with 1 or 4 as acceptor. Enzyme reactions were carried out in a total volume of 100 μl/50 mM Tris-HCl (pH8.0) containing 5 mM MgCl2, 200 μM (FIG. 9: 1) or (FIG. 9: 4), 5 mM (FIG. 12: 5), and typically 10-50 μg pure enzyme. At a suitable time interval during which rate of product formation was linear with time (typically 2-20 min), reactions were quenched with 100 μl MeOH, and the samples centrifuged at 10,000 g for 10 min. Supernatants were analyzed by analytical reverse-phase HPLC with a Gemini 5μ C18 column (Phenomenex) using a gradient of 10-90% CH3CN in 0.1% trifluoroacetic acid (TFA)/H2O in 20 min, with detection at 254 nm. […] The identity of (FIG. 9: 7) was confirmed by LC-MS and NMR while the […] of glucoside (FIG. 9: 6) was confirmed by co-elution with a commercial standard and LC-MS analysis. HPLC peak areas were integrated, and the product concentrations calculated as a percent of the total peak area. Specific activity was expressed as nmols product formed/min/mg protein.

OleD P67T/S132F/A242V [4] = target: T1, OleD P67T/S132F/A242V; test: as above; conditions: UDP-Glc donor
Method: as §1

Row | SMILES | kcat (OleD P67T/S132F/A242V [1]; acceptor 4 varied) [s⁻¹] | efficiency of glucosylation compared to the WT enzyme (OleD P67T/S132F/A242V [1]; kcat/Km, unnatural acceptor 4-methyl-umbelliferone) [fold] | Km (OleD P67T/S132F/A242V [1]; read-out: apparent Km, named substrate varied, other substrate fixed) [µM] | activity in E. coli pET28/OleD crude cell extracts versus extracts not over-expressing OleD (WT OleD [2]) [fold] | Km (WT OleD [3]) [µM] | kcat (WT OleD [3]) [s⁻¹] | improvement in specific activity, P67T/I112K/A242V over P67T/S132F/A242V (OleD P67T/I112K/A242V) | improvement, P67T/I112K/A242V over the parent P67T/I112T/A242V (OleD P67T/I112K/A242V; purified enzymes) | improvement in glucosylation activity, P67T/S132F/A242V compared to WT OleD (OleD P67T/S132F/A242V [4])
1 | Cc1cc(=O)oc2cc(O)ccc12 [4-Me-umb (4), 7-hydroxy-4-methylcoumarin] | 0.0247 | ~60 | 140 | ~2 |  |  |  |  | 
2 | CC(C)=CCc1cc(C(=O)Nc2c(O)c3ccc(O)c(C)c3oc2=O)ccc1O [novobiocic acid (29), novobiocic acid] |  |  |  |  | 2000 | 0.000683 | twenty-eight | seven | five-fold
